# Results as given in the supplement of paper PMC4862054.
# How the values were obtained:
# Conditions in all cases: incubation time: 72 h
# Hs578T [1] = experiment: normalised response (% of control), CellTiter-Glo; higher = more viable cells (100 = DMSO, 0 = benzethonium chloride kill control)
# Description: (§1)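 DSRT, 72 h incubation, CellTox Green / CellTiter-Glo readout. Signal is normalised to DMSO and benzethonium chloride controls. Value is the normalised response at the highest dose.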
# SK-BR-3 = experiment: as above
# Description: as §1
# MCF-10A [2] = experiment: as above
# Description: as §1
# CAL-120 [3] = experiment: as above
# Description: as §1
# MDA-MB-436 [4] = experiment: as above
# Description: as §1
# MFM-223 [5] = experiment: as above
# Description: as §1
# MDA-MB-453 [6] = experiment: as above
# Description: as §1
# CAL-51 [7] = experiment: as above
# Description: as §1
# MDA-MB-231 [8] = experiment: as above
# Description: as §1
# HDQ-P1 [9] = experiment: as above
# Description: as §1
# CAL-148 [10] = experiment: as above
# Description: as §1
# BT-549 [11] = experiment: as above
# Description: as §1
# HCC1599 [12] = experiment: as above
# Description: as §1
# DU-4475 [13] = experiment: as above
# Description: as §1
# HCC1143 [14] = experiment: as above
# Description: as §1
# HCC1937 [15] = experiment: as above
# Description: as §1
# MDA-MB-468 [16] = experiment: as above
# Description: as §1
# CAL-85-1 [17] = experiment: as above
# Description: as §1
# BT-474 [18] = experiment: as above
# Description: as §1
# Hs578T [19] = experiment: normalised response (% of control), CellTox Green; higher = less cell death (100 = DMSO, 0 = benzethonium chloride kill control)
# How it was run: (§2)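 CellTox Green fluorescence (485/520 nm) and, after 10 min at room temperature, CellTiter-Glo luminescence were read from breast cancer cell lines incubated 72 h in 384-well plates. Cells were seeded as 20 µl suspension onto compound at 5 concentrations in 10-fold steps over a 10,000-fold range chosen per compound. Each plate was normalised to 0.1 % DMSO (100) and a positive kill control (0). Values are normalised signals, one per concentration.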
# MCF-10A [20] = experiment: as above
# How it was run: as §2
# CAL-120 [21] = experiment: as above
# How it was run: as §2
# MDA-MB-436 [22] = experiment: as above
# How it was run: as §2
# MFM-223 [23] = experiment: as above
# How it was run: as §2
# MDA-MB-453 [24] = experiment: as above
# How it was run: as §2
# CAL-51 [25] = experiment: as above
# How it was run: as §2
# MDA-MB-231 [26] = experiment: as above
# How it was run: as §2
# HDQ-P1 [27] = experiment: as above
# How it was run: as §2
# CAL-148 [28] = experiment: as above
# How it was run: as §2
# BT-549 [29] = experiment: as above
# How it was run: as §2
# HCC1599 [30] = experiment: as above
# How it was run: as §2
# DU-4475 [31] = experiment: as above
# How it was run: as §2
# HCC1143 [32] = experiment: as above
# How it was run: as §2
# HCC1937 [33] = experiment: as above
# How it was run: as §2
# MDA-MB-468 [34] = experiment: as above
# How it was run: as §2
# CAL-85-1 [35] = experiment: as above
# How it was run: as §2
# BT-474 [36] = experiment: as above
# How it was run: as §2
Compound,normalised response (Hs578T [1]) [%],normalised response (SK-BR-3) [%],normalised response (MCF-10A [2]) [%],normalised response (CAL-120 [3]) [%],normalised response (MDA-MB-436 [4]) [%],normalised response (MFM-223 [5]) [%],normalised response (MDA-MB-453 [6]) [%],normalised response (CAL-51 [7]) [%],normalised response (MDA-MB-231 [8]) [%],normalised response (HDQ-P1 [9]) [%],normalised response (CAL-148 [10]) [%],normalised response (BT-549 [11]) [%],normalised response (HCC1599 [12]) [%],normalised response (DU-4475 [13]) [%],normalised response (HCC1143 [14]) [%],normalised response (HCC1937 [15]) [%],normalised response (MDA-MB-468 [16]) [%],normalised response (CAL-85-1 [17]) [%],normalised response (BT-474 [18]) [%],normalised response (Hs578T [19]) [%],normalised response (MCF-10A [20]) [%],normalised response (CAL-120 [21]) [%],normalised response (MDA-MB-436 [22]) [%],normalised response (MFM-223 [23]) [%],normalised response (MDA-MB-453 [24]) [%],normalised response (CAL-51 [25]) [%],normalised response (MDA-MB-231 [26]) [%],normalised response (HDQ-P1 [27]) [%],normalised response (CAL-148 [28]) [%],normalised response (BT-549 [29]) [%],normalised response (HCC1599 [30]) [%],normalised response (DU-4475 [31]) [%],normalised response (HCC1143 [32]) [%],normalised response (HCC1937 [33]) [%],normalised response (MDA-MB-468 [34]) [%],normalised response (CAL-85-1 [35]) [%],normalised response (BT-474 [36]) [%]
CN(c1ccccc1CNc1nc(Nc2ccc3c(c2)CC(=O)N3)ncc1C(F)(F)F)S(C)(=O)=O (10000 nM),23.9,21.6,9.01,45.7,18.9,48.2,56.4,5.46,4.8,16.5,73,6.21,8.88,2.4,17.8,34.6,7.14,4.6,18.1,-25.4,7.39,89.1,92.8,92.2,105,16.1,-15.1,68.7,58.1,52.9,60.9,64.2,70.8,51.5,110,11.5,84.8
Nc1nccc(-c2c(-c3ccc(F)cc3)ncn2C2CCCCC2)n1 (10000 nM),99.9,71.8,48.5,107,96,88,84.9,89.2,84.4,70.5,110,92.2,101,91.7,99.7,80.2,70.2,75.7,83.6,135,11.8,105,92.7,96,104,105,109,95.7,99.9,100,98.1,98.6,110,69.8,114,71.6,103
COC(=O)C[C@](O)(CCCC(C)(C)O)C(=O)O[C@@H]1C(OC)=C[C@]23CCCN2CCc2cc4c(cc2[C@H]13)OCO4 [Omacetaxine] (10000 nM),1.02,1.19,1.54,21.7,17.4,3.94,24.6,6.4,2.58,21.1,26.6,2.75,6.51,10.2,10.8,17.7,4.57,1.11,5.49,33.9,-13.6,80.1,32.1,30.1,98.8,94.3,48.4,64.9,1.18,77,88.5,98.5,74.8,107,84.9,-46.3,75.2
Cc1cc(C(C)Nc2ccccc2)c2nc(N3CCOCC3)cc(=O)n2c1 (centres undefined) [TGX-221] (10000 nM),79,78,82.5,88.5,70.9,88.7,76.1,67.6,72.5,88.6,105,78.7,99.2,95.6,86.8,78.6,58.1,98.2,70.9,-33.5,,96.3,78.3,94.5,90.7,93.5,69,,97.4,84.2,91,94.7,76.9,79.8,152,106,92.8
COc1cc(Nc2ncc(F)c(Nc3ccc4c(n3)NC(=O)C(C)(C)O4)n2)cc(OC)c1OC [Tamatinib] (10000 nM),102,109,107,94.9,95.7,110,112,74.1,103,100,109,67.4,91.6,107,101,97.5,71.2,97.5,95.6,104,103,100,94.9,94.1,103,83.7,108,111,65.1,95,106,99,115,97,-90.8,64.4,103
C[C@@H]1CCN(C(=O)CC#N)C[C@@H]1N(C)c1ncnc2[nH]ccc12 [Tofacitinib] (5000 nM),101,106,97.2,99.8,110,104,105,76.6,114,102,109,105,106,99.4,102,100,105,109,98.2,126,105,103,113,103,110,89.2,124,113,101,120,114,108,117,111,142,63.8,102
CCCC(CCC)C(=O)O [Valproic acid] (1000000 nM),99,99.1,94.6,103,100,96.3,81.2,87.6,98.6,103,88.4,106,98.2,89.9,106,100,97.8,96.7,100,129,119,111,106,99.5,102,98.4,98.7,107,95.9,111,93.9,97,111,88.4,126,97.4,105
FC(F)c1nc2ccccc2n1-c1nc(N2CCOCC2)nc(N2CCOCC2)n1 [ZSTK474] (10000 nM),25.9,22.4,26.2,34.6,40.6,29.5,15.9,16.4,43.8,33,38.7,21.2,71.7,67.5,37.9,39.1,36.6,20.2,44.8,101,106,98.6,84.2,84.7,99.1,70.5,97.6,99.7,68.1,73.5,88.4,96.3,90.3,86.7,157,82.4,86.6
